# Assays:
# Type in all cases: in vivo
# [1] = test system: canarygrass (Phalaris minor); test: Test C postemergence greenhouse test, plant response rating 0-100; details: for Plant response rating, Canarygrass: 250 g ai/ha, scale 0 to 100
# Method in brief: (§1)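 Formulated compounds applied postemergence; plants 1- to 4-leaf stage. Evaluated visually vs. untreated controls after roughly two weeks (13–15 d) under greenhouse conditions; 100 denotes complete control.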
# [2] = test system: downy bromegrass (Bromus tectorum); test: as above; details: for Plant response rating, Bromegrass, Downy: 250 g ai/ha, scale 0 to 100
# Method in brief: as §1
# [3] = test system: windgrass (Apera spica-venti); test: as above; details: for Plant response rating, Windgrass: 250 g ai/ha, scale 0 to 100
# Method in brief: as §1
# [4] = test system: green foxtail (Setaria viridis); test: as above; details: for Plant response rating, Foxtail, Green: 250 g ai/ha, scale 0 to 100
# Method in brief: as §1
# [5] = test system: woolly cupgrass (Eriochloa villosa); test: as above; details: for Plant response rating, Cupgrass, Woolly: 250 g ai/ha, scale 0 to 100
# Method in brief: as §1
# [6] = test system: winter barley (Hordeum vulgare); test: as above; details: for Plant response rating, Barley: 250 g ai/ha, scale 0 to 100
# Method in brief: as §1
# [7] = test system: deadnettle (henbit deadnettle, Lamium amplexicaule); test: as above; details: for Plant response rating, Deadnettle: 250 g ai/ha, scale 0 to 100
# Method in brief: as §1
# [8] = test system: goosegrass (Eleusine indica); test: as above; details: for Plant response rating, Goosegrass: 250 g ai/ha, scale 0 to 100
# Method in brief: as §1
# [9] = test system: waterhemp_RES2, (ALS & HPPD resistant common waterhemp, Amaranthus rudis); test: Test E postemergence greenhouse test, plant response rating 0-100; details: scale 0 to 100
# Method: At the same time, plants from these crop and weed species and also waterhemp_RES1, (ALS & Triazine resistant common waterhemp, Amaranthus rudis), and waterhemp_RES2, (ALS & HPPD resistant common waterhemp, Amaranthus rudis) were planted in pots containing Redi-Earth® planting medium (Scotts Company, 14111 Scottslawn Road, Marysville, Ohio 43041) comprising spaghnum peat moss, vermiculite, wetting agent and starter nutrients were treated with postemergence applications of test chemicals formulated in the same manner. Plants ranged in height from 2 to 18 cm for postemergence treatments (1- to 4-leaf stage).
# Treated plants and controls were maintained in a greenhouse for 14 to 21 days, after which time all species were compared to controls and visually evaluated. Plant response ratings, summarized in Table E, are based on a scale of 0 to 100 where 0 is no effect and 100 is complete control. A dash (-) response means no test result.
# soybean (Glycine max) = test: Test E pre-/postemergence greenhouse test, plant response rating 0-100; details: Postemergence, scale 0 to 100
# Method in brief: (§2)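 Each species was tested both preemergence, with chemicals sprayed onto freshly planted silt loam, and postemergence, on plants 2 to 18 cm tall in a peat-based medium; the vehicle was a non-phytotoxic solvent mixture with surfactant. After 14 to 21 days in the greenhouse, growth was visually compared with controls and scored 0–100.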
# [10] = test system: fall panicum (Panicum dichotomiflorum); test: as above; details: Postemergence, scale 0 to 100
# Method in brief: as §2
smiles,measurement,setting,value
"CCCn1cc(C(=O)c2ccccc2)c(-c2cc(Cl)cc(Cl)c2)n1 [Compound 61, [3-(3,5-dichlorophenyl)-1-propyl-1H-pyrazol-4-yl]phenylmethanone]","Plant response rating (0 to 100), Canarygrass",[1]; 31 g ai/ha,0
same,"Plant response rating (0 to 100), Canarygrass",[1]; 62 g ai/ha,0
same,"Plant response rating (0 to 100), Canarygrass",[1]; 125 g ai/ha,0
same,"Plant response rating, Canarygrass",[1],0
same,"Plant response rating (0 to 100), Bromegrass, Downy",[2]; 31 g ai/ha,0
same,"Plant response rating (0 to 100), Bromegrass, Downy",[2]; 62 g ai/ha,0
same,"Plant response rating (0 to 100), Bromegrass, Downy",[2]; 125 g ai/ha,0
same,"Plant response rating, Bromegrass, Downy",[2],0
same,"Plant response rating (0 to 100), Windgrass",[3]; 62 g ai/ha,0
same,"Plant response rating (0 to 100), Windgrass",[3]; 125 g ai/ha,0
same,"Plant response rating, Windgrass",[3],0
same,"Plant response rating (0 to 100), Foxtail, Green",[4]; 31 g ai/ha,0
same,"Plant response rating (0 to 100), Foxtail, Green",[4]; 62 g ai/ha,0
same,"Plant response rating (0 to 100), Foxtail, Green",[4]; 125 g ai/ha,0
same,"Plant response rating, Foxtail, Green",[4],0
same,"Plant response rating (0 to 100), Cupgrass, Woolly",[5]; 31 g ai/ha,5
same,"Plant response rating (0 to 100), Cupgrass, Woolly",[5]; 62 g ai/ha,10
same,"Plant response rating (0 to 100), Cupgrass, Woolly",[5]; 125 g ai/ha,10
same,"Plant response rating, Cupgrass, Woolly",[5],15
same,"Plant response rating (0 to 100), Barley",[6]; 31 g ai/ha,0
same,"Plant response rating (0 to 100), Barley",[6]; 62 g ai/ha,0
same,"Plant response rating (0 to 100), Barley",[6]; 125 g ai/ha,0
same,"Plant response rating, Barley",[6],0
same,"Plant response rating (0 to 100), Deadnettle",[7]; 31 g ai/ha,0
same,"Plant response rating (0 to 100), Deadnettle",[7]; 62 g ai/ha,0
same,"Plant response rating (0 to 100), Deadnettle",[7]; 125 g ai/ha,0
same,"Plant response rating, Deadnettle",[7],0
same,"Plant response rating (0 to 100), Goosegrass",[8]; 31 g ai/ha,0
same,"Plant response rating (0 to 100), Goosegrass",[8]; 62 g ai/ha,0
same,"Plant response rating (0 to 100), Goosegrass",[8]; 125 g ai/ha,0
same,"Plant response rating, Goosegrass",[8],5
same,"Plant response rating, Waterhemp_RES2",[9]; 31 g ai/ha,20
same,"Plant response rating, Waterhemp_RES2",[9]; 125 g ai/ha,40
same,"Plant response rating, Waterhemp_RES2",[9]; 500 g ai/ha,95
same,plant injury at 31 g/ha,"soybean (Glycine max); Glycine max, post-emergence, 31 g ai/ha",0%
same,plant injury at 62 g/ha,"soybean (Glycine max); Glycine max, post-emergence, 62 g ai/ha",0%
same,plant injury at 125 g/ha,"soybean (Glycine max); Glycine max, post-emergence, 125 g ai/ha",0%
same,plant injury at 250 g/ha,"soybean (Glycine max); Glycine max, post-emergence, 250 g ai/ha",0%
same,plant injury at 500 g/ha,"soybean (Glycine max); Glycine max, post-emergence, 500 g ai/ha",10%
same,pest or weed control at 31 g/ha,"[10]; Panicum dichotomiflorum, post-emergence, 31 g ai/ha",0%
same,pest or weed control at 62 g/ha,"[10]; Panicum dichotomiflorum, post-emergence, 62 g ai/ha",0%
same,pest or weed control at 125 g/ha,"[10]; Panicum dichotomiflorum, post-emergence, 125 g ai/ha",0%
same,pest or weed control at 250 g/ha,"[10]; Panicum dichotomiflorum, post-emergence, 250 g ai/ha",0%
same,pest or weed control at 500 g/ha,"[10]; Panicum dichotomiflorum, post-emergence, 500 g ai/ha",0%
ON=C(c1ccccc1)c1c[nH]nc1-c1cc(Cl)cc(Cl)c1 [Compound 50],"Plant response rating (0 to 100), Canarygrass",[1]; 31 g ai/ha,0
same,"Plant response rating (0 to 100), Canarygrass",[1]; 62 g ai/ha,0
same,"Plant response rating (0 to 100), Canarygrass",[1]; 125 g ai/ha,0
same,"Plant response rating, Canarygrass",[1],0
same,"Plant response rating (0 to 100), Bromegrass, Downy",[2]; 31 g ai/ha,0
same,"Plant response rating (0 to 100), Bromegrass, Downy",[2]; 62 g ai/ha,0
same,"Plant response rating (0 to 100), Bromegrass, Downy",[2]; 125 g ai/ha,0
same,"Plant response rating, Bromegrass, Downy",[2],0
same,"Plant response rating (0 to 100), Windgrass",[3]; 62 g ai/ha,0
same,"Plant response rating (0 to 100), Windgrass",[3]; 125 g ai/ha,0
same,"Plant response rating, Windgrass",[3],0
same,"Plant response rating (0 to 100), Foxtail, Green",[4]; 31 g ai/ha,0
same,"Plant response rating (0 to 100), Foxtail, Green",[4]; 62 g ai/ha,0
same,"Plant response rating (0 to 100), Foxtail, Green",[4]; 125 g ai/ha,0
same,"Plant response rating, Foxtail, Green",[4],0
same,"Plant response rating (0 to 100), Cupgrass, Woolly",[5]; 31 g ai/ha,0
same,"Plant response rating (0 to 100), Cupgrass, Woolly",[5]; 62 g ai/ha,0
same,"Plant response rating (0 to 100), Cupgrass, Woolly",[5]; 125 g ai/ha,0
same,"Plant response rating, Cupgrass, Woolly",[5],0
same,"Plant response rating (0 to 100), Barley",[6]; 31 g ai/ha,0
same,"Plant response rating (0 to 100), Barley",[6]; 62 g ai/ha,0
same,"Plant response rating (0 to 100), Barley",[6]; 125 g ai/ha,0
same,"Plant response rating, Barley",[6],0
same,"Plant response rating (0 to 100), Deadnettle",[7]; 31 g ai/ha,0
same,"Plant response rating (0 to 100), Deadnettle",[7]; 62 g ai/ha,0
same,"Plant response rating (0 to 100), Deadnettle",[7]; 125 g ai/ha,0
same,"Plant response rating, Deadnettle",[7],40
same,"Plant response rating (0 to 100), Goosegrass",[8]; 31 g ai/ha,0
same,"Plant response rating (0 to 100), Goosegrass",[8]; 62 g ai/ha,0
same,"Plant response rating (0 to 100), Goosegrass",[8]; 125 g ai/ha,0
same,"Plant response rating, Goosegrass",[8],0
same,"Plant response rating, Waterhemp_RES2",[9]; 31 g ai/ha,75
same,"Plant response rating, Waterhemp_RES2",[9]; 125 g ai/ha,100
same,"Plant response rating, Waterhemp_RES2",[9]; 250 g ai/ha,100
same,"Plant response rating, Waterhemp_RES2",[9]; 500 g ai/ha,100
same,"Plant response rating, Soybean",soybean (Glycine max); 31 g ai/ha,0
same,"Plant response rating, Soybean",soybean (Glycine max); 62 g ai/ha,0
same,"Plant response rating, Soybean",soybean (Glycine max); 125 g ai/ha,0
same,"Plant response rating, Soybean",soybean (Glycine max); 250 g ai/ha,0
same,"Plant response rating, Soybean",soybean (Glycine max); 500 g ai/ha,0
same,"Plant response rating, Panicum, Fall",[10]; 31 g ai/ha,0
same,"Plant response rating, Panicum, Fall",[10]; 62 g ai/ha,0
same,"Plant response rating, Panicum, Fall",[10]; 125 g ai/ha,0
same,"Plant response rating, Panicum, Fall",[10]; 250 g ai/ha,0
same,"Plant response rating, Panicum, Fall",[10]; 500 g ai/ha,0

# Reference: US10167262B2, “Herbicidal substituted 3-arylpyrazoles” (FMC CORPORATION, priority 2014, dated 2019)
